# Earlier results in patent US20050085485A1, “Orally dispersible pharmaceutical piribedil composition” (priority 2002, published 2005).
# Settings: humans
smiles,measurement,setting,value
"c1cnc(N2CCN(Cc3ccc4c(c3)OCO4)CC2)nc1 [piribedil, Piribedil]",period over which therapeutic levels are spread out,"currently marketed prolonged-release form, 50 mg dose",more than 24 hours
same,bioavailability by the oral route,oral route in relation to the parenteral route,low
